Experiments:
[1] = molecular target: Serine/threonine-protein kinase PAK 1 (Homo sapiens) (UniProt Q13153); test: Inhibition of PAK1 (unknown origin)
[2] = molecular target: Serine/threonine-protein kinase PAK 1 (Homo sapiens) (UniProt Q13153); test: Inhibition of PAK1 (unknown origin) in presence of ATP by Z-LYTE enzymatic kinase assay
[3] = molecular target: Serine/threonine-protein kinase PAK 1 (Homo sapiens) (UniProt Q13153); test: Inhibition of PAK1 (unknown origin) in presence of ATP
[4] = molecular target: Serine/threonine-protein kinase PAK1; test: Inhibition of human recombinant PAK1 using KKRNRRLSVA as substrate assessed as inhibition constant preincubated with compound for 10 mins followed by substrate addition and measured after 60 mins by FRET assay
[5] = molecular target: Serine/threonine-protein kinase PAK 1 (Homo sapiens) (UniProt Q13153); test: Inhibition of PAK1 (unknown origin) using 5-FAM-KPDRKKRYTVVGNPY-amide as substrate incubated for 120 mins by caliper off-chip mobility shift assay

Chain of Serine/threonine-protein kinase PAK 1 (Homo sapiens) (Q13153 whole entry, looked up): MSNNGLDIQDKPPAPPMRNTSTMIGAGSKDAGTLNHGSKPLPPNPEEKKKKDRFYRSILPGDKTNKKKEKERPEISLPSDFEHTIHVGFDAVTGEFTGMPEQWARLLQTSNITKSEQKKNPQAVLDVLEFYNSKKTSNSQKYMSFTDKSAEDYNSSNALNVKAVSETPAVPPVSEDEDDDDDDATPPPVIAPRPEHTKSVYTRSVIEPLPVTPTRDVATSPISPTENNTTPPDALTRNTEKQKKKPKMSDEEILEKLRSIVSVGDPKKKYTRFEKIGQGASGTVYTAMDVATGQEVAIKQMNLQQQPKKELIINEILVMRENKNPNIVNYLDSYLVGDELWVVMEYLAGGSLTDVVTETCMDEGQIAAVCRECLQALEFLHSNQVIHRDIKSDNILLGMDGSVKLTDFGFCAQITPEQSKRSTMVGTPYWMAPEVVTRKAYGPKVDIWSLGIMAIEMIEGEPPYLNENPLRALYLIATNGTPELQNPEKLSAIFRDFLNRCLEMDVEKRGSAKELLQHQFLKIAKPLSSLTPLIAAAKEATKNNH

Structure (SMILES) | IC50 [1] | further results
CN1CCN(c2ccc(Nc3ncc4ccc(=O)n(C5CCCC5)c4n3)cc2)CC1 [Pyrido[2,3-d]pyrimidin-7-one 1] |  | IC50 [2]: 483 nM
O=C1NC(=O)c2cc(-c3ccccn3)ccc21 |  | IC50 [3]: > 100000 nM
Cc1nc2ccc(C#CC(C)(C)O)cc2n1-c1ncnc(N)n1 |  | Ki [4]: 15300 nM
CN[C@@H]1C[C@H]2O[C@@](C)([C@@H]1OC)n1c3ccccc3c3c4c(c5c6cc(O)ccc6n2c5c31)C(=O)NC4 | 1 nM | 
CCn1c(=O)c(-c2ccc(Cl)cc2Cl)cc2cnc(Nc3ccc(N4CCN(C)CC4)cc3)nc21 [FRAX414] |  | IC50 [2]: 20 nM
O=C(c1ccccc1Cl)c1n[nH]c2ncc(-c3cnn(C4CCNCC4)c3)cc12 |  | IC50 [5]: 20 nM
CCN1c2ccc(F)cc2N=C(N2CCN(C)CC2)c2cc(Cl)ccc21 | 340 nM | 

The next lines start with results.

IC50 [1] | Structure (SMILES) | further results
1.6 nM | CCN(Cc1ccc2[nH]cnc2c1Cl)c1nccc(Nc2cc(C(C)C)[nH]n2)n1 | 
4 nM | CCn1c(=O)c(-c2ccc(-c3noc(C)n3)cc2Cl)cc2cnc(Nc3ccc(C4CCN(C)CC4)cc3)nc21 | 
8 nM | CN(Cc1ccc2[nH]ccc2n1)c1nccc(Nc2cc([C@H]3C[C@@H]3F)[nH]n2)n1 | 
